Measured values taken from ChEMBL document CHEMBL3352071, “Benzimidazoles: novel mycobacterial gyrase inhibitors from scaffold morphing” (ACS Med Chem Lett, 2014).
In brackets after ≈: the same amount, converted by molar mass.

What was measured:
[1] = Inhibition of Mycobacterium tuberculosis H37Rv DNA gyrase A2B2 holoenzyme supercoiling activity using relaxed pBR322 substrate incubated for 90 mins by ethidium bromide staining based gel electrophoresis method
[2] = test system: Mycobacterium tuberculosis; test: Antimicrobial activity against Mycobacterium tuberculosis H37Rv ATCC 27294; assay type: functional
THP-1 = test: Cytotoxicity against human THP1 cells; assay type: cell-based
DNA gyrase subunit B = DNA gyrase subunit B (Mycobacterium smegmatis, UniProt P0C559); test: Inhibition of Mycobacterium smegmatis GyrB ATPase activity; design: species or system Mycolicibacterium smegmatis
DNA gyrase subunit B, sequence (P0C559 whole entry): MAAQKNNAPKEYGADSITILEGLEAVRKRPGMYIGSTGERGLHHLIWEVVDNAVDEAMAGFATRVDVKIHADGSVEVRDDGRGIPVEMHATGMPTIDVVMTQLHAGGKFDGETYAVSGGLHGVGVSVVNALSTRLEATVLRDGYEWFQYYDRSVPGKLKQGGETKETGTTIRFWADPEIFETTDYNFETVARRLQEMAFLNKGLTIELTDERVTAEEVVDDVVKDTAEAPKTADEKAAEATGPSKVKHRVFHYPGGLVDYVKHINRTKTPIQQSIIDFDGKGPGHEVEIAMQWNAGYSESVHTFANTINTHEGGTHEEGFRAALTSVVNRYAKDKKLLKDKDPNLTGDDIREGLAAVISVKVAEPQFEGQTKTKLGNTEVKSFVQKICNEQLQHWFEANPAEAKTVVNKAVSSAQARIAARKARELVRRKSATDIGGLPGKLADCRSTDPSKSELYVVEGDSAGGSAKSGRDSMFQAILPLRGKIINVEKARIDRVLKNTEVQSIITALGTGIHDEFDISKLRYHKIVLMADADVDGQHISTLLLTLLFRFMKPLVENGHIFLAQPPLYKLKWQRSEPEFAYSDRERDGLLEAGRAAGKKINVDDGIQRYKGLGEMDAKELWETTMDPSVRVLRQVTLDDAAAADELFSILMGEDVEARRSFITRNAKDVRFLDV

[3] = Octanol-water partition coefficient, logD of the compound at pH 7.4 by shake-flask method; assay type: physicochemical
[4] = molecular target: Voltage-gated inwardly rectifying potassium channel KCNH2 (Homo sapiens, UniProt Q12809)
Voltage-gated inwardly rectifying potassium channel KCNH2, sequence (Q12809 whole entry): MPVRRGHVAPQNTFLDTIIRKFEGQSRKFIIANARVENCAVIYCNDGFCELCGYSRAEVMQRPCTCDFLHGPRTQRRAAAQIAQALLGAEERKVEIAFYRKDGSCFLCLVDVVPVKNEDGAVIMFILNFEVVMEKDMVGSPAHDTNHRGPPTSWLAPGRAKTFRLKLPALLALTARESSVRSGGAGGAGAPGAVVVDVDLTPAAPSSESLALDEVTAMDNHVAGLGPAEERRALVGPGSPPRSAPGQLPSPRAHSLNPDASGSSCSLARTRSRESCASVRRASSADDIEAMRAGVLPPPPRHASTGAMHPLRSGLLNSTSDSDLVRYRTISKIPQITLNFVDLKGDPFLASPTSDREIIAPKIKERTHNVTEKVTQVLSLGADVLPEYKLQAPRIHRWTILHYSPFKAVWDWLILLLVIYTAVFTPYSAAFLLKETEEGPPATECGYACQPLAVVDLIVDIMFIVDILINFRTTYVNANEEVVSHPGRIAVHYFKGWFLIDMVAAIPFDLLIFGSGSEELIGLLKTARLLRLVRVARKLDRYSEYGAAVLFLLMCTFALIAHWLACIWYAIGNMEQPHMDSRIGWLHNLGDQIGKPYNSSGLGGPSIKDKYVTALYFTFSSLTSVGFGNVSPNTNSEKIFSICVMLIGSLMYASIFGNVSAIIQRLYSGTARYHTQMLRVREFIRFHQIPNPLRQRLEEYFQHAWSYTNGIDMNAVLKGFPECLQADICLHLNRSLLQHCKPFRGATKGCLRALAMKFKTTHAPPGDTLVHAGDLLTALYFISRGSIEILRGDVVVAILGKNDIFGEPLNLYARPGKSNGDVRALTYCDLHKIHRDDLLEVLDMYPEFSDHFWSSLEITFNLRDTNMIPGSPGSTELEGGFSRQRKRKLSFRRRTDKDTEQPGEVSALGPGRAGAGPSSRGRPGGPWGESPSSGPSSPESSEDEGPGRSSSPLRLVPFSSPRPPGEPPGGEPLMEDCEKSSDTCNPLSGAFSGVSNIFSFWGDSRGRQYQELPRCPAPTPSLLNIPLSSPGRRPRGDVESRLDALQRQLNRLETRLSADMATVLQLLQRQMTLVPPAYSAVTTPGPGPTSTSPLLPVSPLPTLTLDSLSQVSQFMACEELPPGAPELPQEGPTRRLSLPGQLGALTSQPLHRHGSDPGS
Description: Inhibition of human ERG by electrophysiology assay

[5] = Permeability from basolateral to apical side in human Caco2 cells; assay type: ADME, cell-based; conditions: Caco-2, read-out: permeability
[6] = Solubility of the compound; assay type: physicochemical
Cytochrome P450 2D6 = Cytochrome P450 2D6 (Homo sapiens, UniProt P10635); test: Inhibition of CYP2D6 (unknown origin); assay type: ADME
Cytochrome P450 2D6, sequence (P10635 whole entry): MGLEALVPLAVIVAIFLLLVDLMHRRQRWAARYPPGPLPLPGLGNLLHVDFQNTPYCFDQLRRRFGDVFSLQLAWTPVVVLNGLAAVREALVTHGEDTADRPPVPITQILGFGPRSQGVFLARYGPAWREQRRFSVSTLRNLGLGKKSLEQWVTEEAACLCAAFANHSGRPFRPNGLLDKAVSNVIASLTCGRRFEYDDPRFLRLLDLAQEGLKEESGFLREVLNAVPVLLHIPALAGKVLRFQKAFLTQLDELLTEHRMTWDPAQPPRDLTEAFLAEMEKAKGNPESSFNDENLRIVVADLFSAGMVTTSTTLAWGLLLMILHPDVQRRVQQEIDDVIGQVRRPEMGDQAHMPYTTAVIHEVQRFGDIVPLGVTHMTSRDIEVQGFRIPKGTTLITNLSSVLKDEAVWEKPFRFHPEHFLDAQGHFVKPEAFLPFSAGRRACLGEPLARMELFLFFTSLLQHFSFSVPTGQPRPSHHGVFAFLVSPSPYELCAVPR

Cytochrome P450 2C9 = Cytochrome P450 2C9 (Homo sapiens, UniProt P11712); test: Inhibition of CYP2C9 (unknown origin); assay type: ADME
Cytochrome P450 2C9, sequence (P11712 whole entry): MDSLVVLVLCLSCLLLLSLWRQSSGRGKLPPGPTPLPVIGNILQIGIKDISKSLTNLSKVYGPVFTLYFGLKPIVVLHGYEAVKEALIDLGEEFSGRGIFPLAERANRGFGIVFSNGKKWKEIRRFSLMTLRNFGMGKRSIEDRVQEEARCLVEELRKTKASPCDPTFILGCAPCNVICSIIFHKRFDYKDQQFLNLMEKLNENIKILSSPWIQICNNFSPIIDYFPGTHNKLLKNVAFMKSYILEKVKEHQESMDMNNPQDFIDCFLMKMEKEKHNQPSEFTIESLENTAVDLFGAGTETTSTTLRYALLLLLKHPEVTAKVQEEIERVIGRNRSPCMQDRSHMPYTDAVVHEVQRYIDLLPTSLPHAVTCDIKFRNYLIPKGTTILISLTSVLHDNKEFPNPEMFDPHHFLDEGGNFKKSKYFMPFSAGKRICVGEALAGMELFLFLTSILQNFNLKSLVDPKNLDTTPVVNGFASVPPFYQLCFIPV

[7] = AUC (0 to infinity) in Wistar rat at 10 mg/kg, po; assay type: ADME, organism-based; design: time infinity, dose 10 mg/kg, route oral; conditions: plasma
Cytochrome P450 3A4 = Cytochrome P450 3A4 (Homo sapiens, UniProt P08684); test: Inhibition of CYP3A4 (unknown origin); assay type: ADME
Cytochrome P450 3A4, sequence (P08684 whole entry): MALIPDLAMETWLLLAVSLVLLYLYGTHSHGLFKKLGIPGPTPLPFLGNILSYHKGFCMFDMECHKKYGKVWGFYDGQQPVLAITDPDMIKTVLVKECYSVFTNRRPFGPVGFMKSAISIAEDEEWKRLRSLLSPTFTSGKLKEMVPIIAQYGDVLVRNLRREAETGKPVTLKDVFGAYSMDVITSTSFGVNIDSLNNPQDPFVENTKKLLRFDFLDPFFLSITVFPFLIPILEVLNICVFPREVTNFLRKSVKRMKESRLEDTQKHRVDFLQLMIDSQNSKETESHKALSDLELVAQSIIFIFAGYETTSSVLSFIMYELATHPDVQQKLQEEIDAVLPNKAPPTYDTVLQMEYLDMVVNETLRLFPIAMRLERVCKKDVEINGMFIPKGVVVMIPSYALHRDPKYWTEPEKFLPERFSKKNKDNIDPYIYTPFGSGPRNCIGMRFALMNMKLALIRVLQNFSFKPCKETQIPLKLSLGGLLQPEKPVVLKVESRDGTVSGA

Cytochrome P450 1A2 = molecular target: T1, Cytochrome P450 1A2 (Homo sapiens, UniProt P05177); test: Inhibition of CYP1A2 (unknown origin); assay type: ADME
T1 sequence (P05177 whole entry): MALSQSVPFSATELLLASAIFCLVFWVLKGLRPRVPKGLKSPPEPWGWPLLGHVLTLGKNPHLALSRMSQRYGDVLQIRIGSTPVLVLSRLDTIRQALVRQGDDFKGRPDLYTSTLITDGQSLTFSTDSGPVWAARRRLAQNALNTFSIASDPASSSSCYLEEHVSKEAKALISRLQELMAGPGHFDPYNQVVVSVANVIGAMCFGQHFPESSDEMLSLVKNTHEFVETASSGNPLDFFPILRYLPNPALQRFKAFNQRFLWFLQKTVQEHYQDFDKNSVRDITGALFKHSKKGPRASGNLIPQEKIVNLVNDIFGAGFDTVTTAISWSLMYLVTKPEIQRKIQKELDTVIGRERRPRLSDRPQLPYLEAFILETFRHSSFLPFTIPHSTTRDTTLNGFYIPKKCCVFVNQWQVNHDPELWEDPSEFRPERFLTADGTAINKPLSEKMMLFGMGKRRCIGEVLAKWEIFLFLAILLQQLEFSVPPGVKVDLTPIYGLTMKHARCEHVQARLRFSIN

[8] = AUC (0 to infinity) in Wistar rat at 1 mg/kg, iv; assay type: ADME, organism-based; design: time infinity, dose 1 mg/kg, route intravenous; conditions: plasma
[9] = Permeability from apical to basolateral side in human Caco2 cells; assay type: ADME, cell-based; conditions: Caco-2, read-out: permeability
[10] = Clearance in Wistar rat at 1 mg/kg, iv; assay type: ADME, organism-based; design: dose 1 mg/kg, route intravenous; conditions: in vivo
[11] = Elimination half life in Wistar rat at 1 mg/kg, iv; assay type: ADME, organism-based; design: dose 1 mg/kg, route intravenous; conditions: in vivo, read-out: beta t1/2 (converted)
[12] = Oral bioavailability in Wistar rat at 10 mg/kg; assay type: ADME, organism-based; conditions: in vivo
Cytochrome P450 2C19 = Cytochrome P450 2C19 (Homo sapiens, UniProt P33261); test: Inhibition of CYP2C19 (unknown origin); assay type: ADME
Cytochrome P450 2C19, sequence (P33261 whole entry): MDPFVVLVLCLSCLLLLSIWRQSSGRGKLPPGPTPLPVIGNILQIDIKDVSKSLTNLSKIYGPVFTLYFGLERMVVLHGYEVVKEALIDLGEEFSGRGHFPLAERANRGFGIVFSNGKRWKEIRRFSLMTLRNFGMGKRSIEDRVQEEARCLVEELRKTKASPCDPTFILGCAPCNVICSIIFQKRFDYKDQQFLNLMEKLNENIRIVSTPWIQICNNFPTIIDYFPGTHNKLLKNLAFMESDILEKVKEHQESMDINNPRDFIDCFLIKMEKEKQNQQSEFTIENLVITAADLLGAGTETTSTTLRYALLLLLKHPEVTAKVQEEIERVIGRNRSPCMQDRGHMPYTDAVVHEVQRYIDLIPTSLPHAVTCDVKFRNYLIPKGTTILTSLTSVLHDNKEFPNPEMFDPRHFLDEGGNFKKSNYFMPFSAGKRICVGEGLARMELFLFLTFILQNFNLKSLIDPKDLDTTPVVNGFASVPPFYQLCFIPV

[13] = Volume of distribution at steady state in Wistar rat at 1 mg/kg, iv; assay type: ADME, organism-based; design: dose 1 mg/kg, route intravenous; conditions: in vivo, read-out: Vdss

Row | Structure (SMILES) | MIC [2] [µM] | logD [3] | IC50 [4] [µM] | other results
1 | N#Cc1ccc2ccc(=O)n(CCN3CCC(NCc4ccc5c(n4)NC(=O)CO5)CC3)c2c1 | 0.19 (≈ 0.0871 µg/mL) | – | – | IC50 [1]: 0.11 µM
2 | COc1cnc2ccc(=O)n(CCN3CCC(C4C(=O)Nc5ccc(Cl)cc54)CC3)c2c1 (stereo not drawn) | 100 (≈ 45.3 µg/mL) | 2.8 | 4.8 | IC50 (THP-1): > 50 µM; IC50 [1]: > 50 µM; IC50 (DNA gyrase subunit B): > 100 µM
3 | COc1cnc2ccc(=O)n(CCN3CCC(c4nc5cc(C(F)(F)F)ccc5[nH]4)CC3)c2c1 | 0.19 (≈ 0.0896 µg/mL) | 4 | – | IC50 (THP-1): > 50 µM; IC50 (DNA gyrase subunit B): > 100 µM
4 | COc1cnc2ccc(=O)n(CCN3CCN(c4nc5cc(C(F)(F)F)ccc5[nH]4)CC3)c2c1 | 3.13 (≈ 1.48 µg/mL) | 2.8 | 10 | –
5 | COc1cnc2ccc(=O)n(CCN3CCN(c4nc5ccccc5[nH]4)CC3)c2c1 | 100 (≈ 40.4 µg/mL) | 2.4 | 7 | –
6 | O=c1ccc2ncc(F)cc2n1CCN1CCN(c2nc3cc(C(F)(F)F)ccc3[nH]2)CC1 | 15 (≈ 6.91 µg/mL) | 3.7 | – | –
7 | O=c1ccc2ncc(F)cc2n1CCN1CCC(c2nc3cc(C(F)(F)F)ccc3[nH]2)CC1 | 0.78 (≈ 0.358 µg/mL) | – | – | –
8 | N#Cc1ccc2[nH]c(C3CCN(CCn4c(=O)ccc5ncc(F)cc54)CC3)nc2c1 | 50 (≈ 20.8 µg/mL) | – | – | –
9 | COc1cnc2ccc(=O)n(CCN3CCC(c4nc5cc(Cl)ccc5[nH]4)CC3)c2c1 | 0.25 (≈ 0.109 µg/mL) | 3.6 | – | –
10 | COc1cnc2ccc(=O)n(CCN3CCC(c4nc5cc(C#N)ccc5[nH]4)CC3)c2c1 | 3.15 (≈ 1.35 µg/mL) | 2.4 | – | –
11 | COc1cnc2ccc(=O)n(CCN3CCC(c4nc5cc(Cl)c(F)cc5[nH]4)CC3)c2c1 | 0.06 (≈ 0.0274 µg/mL) | 4 | – | IC50 [1]: 2 µM
12 | COc1cnc2ccc(=O)n(CCN3CCC(c4nc5cc(Cl)c(C)cc5[nH]4)CC3)c2c1 | 0.13 (≈ 0.0588 µg/mL) | 3.8 | – | –
13 | Cc1cc2[nH]c(C3CCN(CCn4c(=O)ccc5ncc(F)cc54)CC3)nc2cc1Cl | 1.56 (≈ 0.686 µg/mL) | 3.7 | 1.2 | –
14 | COc1ccc2ncc(=O)n(CCN3CCC(c4nc5cc(Cl)c(C)cc5[nH]4)CC3)c2c1 | 0.13 (≈ 0.0588 µg/mL) | – | – | –
15 | COc1cnc2ncc(=O)n(CCN3CCC(c4nc5cc(Cl)c(C)cc5[nH]4)CC3)c2c1 | 0.39 (≈ 0.177 µg/mL) | 3.5 | 10 | –
16 | Cc1cc2[nH]c(C3CCN(CCn4c(=O)ccc5ncc(F)cc54)CC3)nc2cc1C#N | 3.15 (≈ 1.36 µg/mL) | – | – | –
17 | COc1cnc2ccc(=O)n(CCN3CCC(c4nc5cc(C#N)c(C)cc5[nH]4)CC3)c2c1 | 0.19 (≈ 0.0841 µg/mL) | 2.8 | – | Papp B→A [5]: 28.1 ×10⁻⁶ cm/s; solubility [6]: 2.1 µM (≈ 0.929 µg/mL); IC50 [1]: 4.3 µM; IC50 (Cytochrome P450 2D6): 28 µM; IC50 (Cytochrome P450 2C9): > 30 µM; AUC(0-inf) [7]: 20 ng·h/mL; IC50 (Cytochrome P450 3A4): 9.4 µM; IC50 (Cytochrome P450 1A2): > 30 µM; AUC(0-inf) [8]: 470 ng·h/mL; Papp A→B [9]: 0.4 ×10⁻⁶ cm/s; clearance [10]: 35.5 mL/min/kg; half-life [11]: 36 min; bioavailability [12]: 1.1%; IC50 (Cytochrome P450 2C19): > 30 µM; Vd [13]: 1.01 L/kg
18 | COc1cnc2ccc(=O)n(CCN3CCN(c4nc5cc(C#N)c(C)cc5[nH]4)CC3)c2c1 | 0.78 (≈ 0.346 µg/mL) | 3.2 | > 33 | Papp B→A [5]: 24.1 ×10⁻⁶ cm/s; solubility [6]: 3 µM (≈ 1.33 µg/mL); IC50 (Cytochrome P450 2D6): 20 µM; IC50 (Cytochrome P450 2C9): > 30 µM; AUC(0-inf) [7]: 160 ng·h/mL; IC50 (Cytochrome P450 3A4): 20 µM; IC50 (Cytochrome P450 1A2): > 30 µM; AUC(0-inf) [8]: 520 ng·h/mL; Papp A→B [9]: 1.5 ×10⁻⁶ cm/s; clearance [10]: 32.2 mL/min/kg; half-life [11]: 48 min; bioavailability [12]: 3.3%; IC50 (Cytochrome P450 2C19): > 30 µM; Vd [13]: 1.54 L/kg
19 | N#Cc1ccc2[nH]c(C3CCN(CCn4c(=O)ccc5ncc(Oc6cccnc6)cc54)CC3)nc2c1 | 3.13 (≈ 1.54 µg/mL) | 2.9 | – | –
20 | N#Cc1ccc2[nH]c(C3CCN(CCn4c(=O)ccc5ncc(Oc6ccc(S(N)(=O)=O)cc6)cc54)CC3)nc2c1 | 0.78 (≈ 0.444 µg/mL) | 2.2 | > 33 | –
21 | NS(=O)(=O)c1ccc(Oc2cnc3ccc(=O)n(CCN4CCC(c5nc6cc(C(F)(F)F)ccc6[nH]5)CC4)c3c2)cc1 | 0.19 (≈ 0.116 µg/mL) | 2.4 | > 33 | IC50 [1]: 1.9 µM
22 | COc1cnc2ccc(=O)n(CCN3CCC(c4c[nH]c5ccc(C#N)cc45)CC3)c2c1 | 100 (≈ 42.8 µg/mL) | 3.3 | 2 | IC50 (THP-1): > 50 µM; IC50 [1]: > 50 µM; IC50 (DNA gyrase subunit B): > 100 µM
23 | COc1cnc2ccc(=O)n(CCN3CCC(c4c[nH]c5cc(C(F)(F)F)ccc45)CC3)c2c1 | 50 (≈ 23.5 µg/mL) | 4 | – | IC50 (THP-1): > 50 µM; IC50 [1]: > 50 µM; IC50 (DNA gyrase subunit B): > 100 µM
24 | O=c1ccc2ncc(F)cc2n1CCN1CCC(NCc2ccc(C(F)(F)F)nc2)CC1 | 0.19 (≈ 0.0854 µg/mL) | – | – | IC50 [1]: 0.25 µM
25 | O=C(O)c1cn(C2CC2)c2cc(N3CCNCC3)c(F)cc2c1=O [CIPROFLOXACIN] | 0.5 (≈ 0.166 µg/mL) | – | – | –
26 | NNC(=O)c1ccncc1 [ISONIAZID] | 0.06 (≈ 0.00823 µg/mL) | – | – | –
27 | COc1c(N2C[C@@H]3CCCN[C@@H]3C2)c(F)cc2c(=O)c(C(=O)O)cn(C3CC3)c12 [MOXIFLOXACIN] | 0.13 (≈ 0.0522 µg/mL) | – | – | –
